pIC50: −log10 of the molar value. Like-named read-outs stand apart in the source and are kept apart here.
Columns and labels:
EGFR L858R = molecular target: T1, EGFR L858R (Homo sapiens, UniProt P00533, L858R); test: Inhibition of EGFR L858R biochemical enzymatic activity (HTRF); conditions: 1 mM ATP, 1 h, room temperature, read-out: IC50 (nM) @L858R
T1 construct: purchased Carna Bio
Outline: (§1)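 Using a high ATP level (1 mM), wild-type and mutant EGFR enzymes were incubated 1 h at room temperature with inhibitor and 1 μM biotinylated TK substrate. Phosphorylation was quantified as the 665/615 nm HTRF ratio. IC50s were derived by logistic fitting.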

A-431 = test: Cell proliferation GI50, A-431 cells (Table 6); type: cell-based
EGFR L858R/T790M = molecular target: T2, EGFR L858R/T790M (Homo sapiens, UniProt P00533, L858R/T790M); test: Inhibition of EGFR L858R/T790M biochemical enzymatic activity (HTRF); conditions: EGFR L858R-T790M, 1 mM ATP, 1 h, room temperature, read-out: IC50 (nM) @L858R-T790M
T2 construct: purchased Carna Bio
T2 sequence (P00533 25-1210 T790M/L858R): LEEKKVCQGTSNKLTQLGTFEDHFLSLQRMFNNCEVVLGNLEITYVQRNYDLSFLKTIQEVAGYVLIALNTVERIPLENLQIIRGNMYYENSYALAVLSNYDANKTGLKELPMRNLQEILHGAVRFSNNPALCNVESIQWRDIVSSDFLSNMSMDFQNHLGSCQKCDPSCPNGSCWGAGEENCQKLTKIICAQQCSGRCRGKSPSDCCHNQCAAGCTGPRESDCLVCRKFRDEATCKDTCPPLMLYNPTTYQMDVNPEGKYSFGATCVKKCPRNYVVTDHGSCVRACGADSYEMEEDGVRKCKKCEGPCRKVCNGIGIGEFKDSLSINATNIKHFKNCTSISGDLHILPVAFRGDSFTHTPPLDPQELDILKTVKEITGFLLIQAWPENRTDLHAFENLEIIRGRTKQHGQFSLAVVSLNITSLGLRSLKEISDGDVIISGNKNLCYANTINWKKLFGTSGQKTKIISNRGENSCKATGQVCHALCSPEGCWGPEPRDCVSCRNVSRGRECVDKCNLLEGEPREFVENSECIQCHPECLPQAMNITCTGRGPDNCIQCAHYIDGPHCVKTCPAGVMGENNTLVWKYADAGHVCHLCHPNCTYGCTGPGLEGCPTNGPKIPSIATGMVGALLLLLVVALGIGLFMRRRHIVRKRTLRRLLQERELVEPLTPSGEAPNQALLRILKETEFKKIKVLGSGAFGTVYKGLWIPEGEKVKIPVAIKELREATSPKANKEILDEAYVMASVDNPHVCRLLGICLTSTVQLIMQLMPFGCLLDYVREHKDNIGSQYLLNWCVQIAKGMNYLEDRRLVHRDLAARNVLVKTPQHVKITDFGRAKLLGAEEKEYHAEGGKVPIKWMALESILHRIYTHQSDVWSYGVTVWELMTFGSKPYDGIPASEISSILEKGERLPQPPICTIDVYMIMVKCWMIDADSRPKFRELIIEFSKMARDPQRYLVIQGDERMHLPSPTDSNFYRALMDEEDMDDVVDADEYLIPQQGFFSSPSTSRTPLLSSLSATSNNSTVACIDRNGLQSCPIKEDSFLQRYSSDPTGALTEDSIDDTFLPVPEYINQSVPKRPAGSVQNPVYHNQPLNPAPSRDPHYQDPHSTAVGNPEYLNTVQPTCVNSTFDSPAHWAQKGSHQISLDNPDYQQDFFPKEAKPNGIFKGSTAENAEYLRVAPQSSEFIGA
Outline: as §1

EGFR Exon19Del/T790M = molecular target: T3, EGFR Exon19Del/T790M (Homo sapiens, UniProt P00533, DEL746-750/T790M); test: Inhibition of EGFR Exon19Del/T790M biochemical enzymatic activity (HTRF); conditions: EGFR Del19-T790M, 1 mM ATP, 1 h, room temperature, read-out: IC50 (nM) @Del19-T790M
T3 construct: purchased Carna Bio
Outline: as §1

[1] = molecular target: T4, EGFR[T790M/C797S/d746-750] (Homo sapiens, UniProt P00533, C797S/DEL746-750/T790M); test: Inhibition of EGFR[T790M/C797S/d746-750] biochemical enzymatic activity (HTRF); conditions: EGFR T790M-C797S-Del19, 1 mM ATP, 1 h, room temperature, read-out: IC50 (nM) @T790M - C797S - Del19
T4 construct: purchased Carna Bio
Outline: as §1

EGFR (d746-750 C797S) = molecular target: T5, EGFR (d746-750 C797S) (Homo sapiens, UniProt P00533, C797S/DEL746-750); test: Inhibition of EGFR (d746-750 C797S) biochemical enzymatic activity (HTRF); conditions: EGFR Del19-C797S, 1 mM ATP, 1 h, room temperature, read-out: IC50 (nM) @Del19-C797S
T5 construct: purchased signalchem
T5 sequence (P00533 with tags, fused parts or gaps DEL746-750/C797S limits assumed): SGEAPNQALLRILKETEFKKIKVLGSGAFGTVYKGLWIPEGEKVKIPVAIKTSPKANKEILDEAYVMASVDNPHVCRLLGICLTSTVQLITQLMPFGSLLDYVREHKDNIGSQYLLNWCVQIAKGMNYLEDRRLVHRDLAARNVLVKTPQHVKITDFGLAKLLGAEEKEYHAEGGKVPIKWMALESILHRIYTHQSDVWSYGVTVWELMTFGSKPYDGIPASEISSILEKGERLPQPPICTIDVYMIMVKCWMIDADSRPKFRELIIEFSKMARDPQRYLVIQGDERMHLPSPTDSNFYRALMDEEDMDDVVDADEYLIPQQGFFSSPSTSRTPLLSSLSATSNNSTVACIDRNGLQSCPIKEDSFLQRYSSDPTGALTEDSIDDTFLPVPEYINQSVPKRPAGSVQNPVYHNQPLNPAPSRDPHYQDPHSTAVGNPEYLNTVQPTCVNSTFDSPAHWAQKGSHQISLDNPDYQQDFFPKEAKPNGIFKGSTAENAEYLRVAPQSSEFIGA
Outline: as §1

PC-9 = test: Cell proliferation assay, PC-9 cells (CellTiter-Glo, 72 hours); type: cell-based; conditions: PC9 cells, CellTiter-Glo, read-out: PC9 GI50
Outline: (§2)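 Seed Ba/F3 at 5000 cells/well and PC-9 at 500 cells/well (10% FBS RPMI1640); incubate overnight; add compound dilution series; read a G0 plate; incubate; read G3; GI50 from best-fit curve.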

EGFR Exon19Del = molecular target: T6, EGFR Exon19Del (Homo sapiens, UniProt P00533, DEL746-750); test: Inhibition of EGFR Exon19Del biochemical enzymatic activity (HTRF); conditions: EGFR Del19, 1 mM ATP, 1 h, room temperature, read-out: IC50 @Del19
T6 construct: purchased Carna Bio
T6 sequence (P00533 with tags, fused parts or gaps DEL746-750 limits assumed): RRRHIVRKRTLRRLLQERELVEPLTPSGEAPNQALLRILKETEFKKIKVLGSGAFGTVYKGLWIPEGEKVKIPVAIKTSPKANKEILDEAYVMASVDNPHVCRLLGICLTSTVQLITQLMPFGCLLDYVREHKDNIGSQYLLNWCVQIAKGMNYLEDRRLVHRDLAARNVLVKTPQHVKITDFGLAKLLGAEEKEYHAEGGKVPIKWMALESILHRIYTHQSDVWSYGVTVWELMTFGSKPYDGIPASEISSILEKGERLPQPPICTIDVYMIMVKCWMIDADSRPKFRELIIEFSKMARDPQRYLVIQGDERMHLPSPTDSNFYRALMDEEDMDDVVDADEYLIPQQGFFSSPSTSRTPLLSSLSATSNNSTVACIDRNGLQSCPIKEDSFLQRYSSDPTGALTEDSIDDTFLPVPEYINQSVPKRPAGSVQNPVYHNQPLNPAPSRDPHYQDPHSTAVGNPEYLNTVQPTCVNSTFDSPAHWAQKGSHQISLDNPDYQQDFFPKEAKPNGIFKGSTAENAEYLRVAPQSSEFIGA
Outline: as §1

[2] = test system: Ba/F3 cells expressing EGFR mutations; test: Cell proliferation assay, Ba/F3 cells expressing EGFR mutations (CellTiter-Glo, 72 hours); type: cell-based; conditions: CellTiter-Glo
Outline: as §2

EGFR[T790M/C797S/L858R] = molecular target: T7, EGFR[T790M/C797S/L858R] (Homo sapiens, UniProt P00533, C797S/L858R/T790M); test: Inhibition of EGFR[T790M/C797S/L858R] biochemical enzymatic activity (HTRF); conditions: EGFR T790M-C797S-L858R, 1 mM ATP, 1 h, room temperature, read-out: IC50 (nM) @T790M- C797S - L858R
T7 construct: purchased Carna Bio
Outline: as §1

EGFR wild type = molecular target: T8, EGFR wild type (Homo sapiens, UniProt P00533); test: Inhibition of EGFR wild type biochemical enzymatic activity (HTRF); conditions: EGFR WT, 1 mM ATP, 1 h, room temperature, read-out: IC50 (nM) @WT
T8 construct: purchased Carna Bio
T8 sequence (P00533 25-1210): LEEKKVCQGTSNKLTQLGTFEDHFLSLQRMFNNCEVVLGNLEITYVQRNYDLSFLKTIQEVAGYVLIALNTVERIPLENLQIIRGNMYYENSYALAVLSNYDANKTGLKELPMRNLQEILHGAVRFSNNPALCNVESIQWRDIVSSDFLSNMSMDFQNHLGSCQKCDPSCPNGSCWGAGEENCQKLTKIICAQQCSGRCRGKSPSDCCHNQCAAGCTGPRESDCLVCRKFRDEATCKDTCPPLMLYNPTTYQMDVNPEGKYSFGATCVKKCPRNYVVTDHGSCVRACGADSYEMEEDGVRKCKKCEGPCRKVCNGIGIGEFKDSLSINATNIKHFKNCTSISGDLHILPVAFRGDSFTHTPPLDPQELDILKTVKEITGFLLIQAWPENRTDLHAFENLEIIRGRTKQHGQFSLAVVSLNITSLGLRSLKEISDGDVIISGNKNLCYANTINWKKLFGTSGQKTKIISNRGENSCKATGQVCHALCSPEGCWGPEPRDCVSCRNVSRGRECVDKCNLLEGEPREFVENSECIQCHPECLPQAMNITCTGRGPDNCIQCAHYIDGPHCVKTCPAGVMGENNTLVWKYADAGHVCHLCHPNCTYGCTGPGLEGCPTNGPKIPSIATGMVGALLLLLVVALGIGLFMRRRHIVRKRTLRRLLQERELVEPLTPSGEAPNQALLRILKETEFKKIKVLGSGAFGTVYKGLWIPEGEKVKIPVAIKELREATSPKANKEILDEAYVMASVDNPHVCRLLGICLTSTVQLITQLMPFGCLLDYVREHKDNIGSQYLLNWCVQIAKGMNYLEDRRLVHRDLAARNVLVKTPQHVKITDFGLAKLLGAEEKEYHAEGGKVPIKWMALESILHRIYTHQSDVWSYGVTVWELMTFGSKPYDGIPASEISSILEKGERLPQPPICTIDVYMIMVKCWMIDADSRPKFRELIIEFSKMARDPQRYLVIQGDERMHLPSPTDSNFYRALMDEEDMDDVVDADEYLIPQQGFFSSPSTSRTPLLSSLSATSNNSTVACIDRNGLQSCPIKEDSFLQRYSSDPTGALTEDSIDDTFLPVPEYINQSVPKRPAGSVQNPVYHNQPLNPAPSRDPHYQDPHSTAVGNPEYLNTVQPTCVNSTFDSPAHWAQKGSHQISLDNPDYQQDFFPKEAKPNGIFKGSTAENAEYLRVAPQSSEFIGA
Outline: as §1

EGFR (C797S L858R) = molecular target: T9, EGFR (C797S L858R) (Homo sapiens, UniProt P00533, C797S/L858R); test: Inhibition of EGFR (C797S L858R) biochemical enzymatic activity (HTRF); conditions: EGFR L858-C797S, 1 mM ATP, 1 h, room temperature, read-out: IC50 (nM) @L858-C797S
T9 construct: purchased signalchem
Outline: as §1

[3] = Homo sapiens, A-431, A-431 cells
[4] = Mus musculus, BaF3, 72 h, BaF3 cells, EGFR DEL19-C797S, read-out: DEL19-C797S/BaF3 GI50
[5] = Mus musculus, BaF3, 72 h, BaF3 cells, EGFR DEL19-T790-C797S, read-out: DEL19-T790-C797S/BaF3 GI50
[6] = Mus musculus, BaF3, 72 h, BaF3 cells, EGFR L858R, read-out: L858R/BaF3 GI50
[7] = Mus musculus, BaF3, 72 h, BaF3 cells, EGFR L858R-C797S, read-out: L858R-C797S/BaF3 GI50
[8] = Mus musculus, BaF3, 72 h, BaF3 cells, EGFR L858R-T790-C797S, read-out: L858R-T790-C797S/BaF3 GI50
[9] = Mus musculus, BaF3, 72 h, BaF3 cells, EGFR L858R-T790M, read-out: L858R-T790M/BaF3 GI50
[10] = Mus musculus, BaF3, 72 h, EGFR DEL19-T790M, read-out: DEL19-T790M GI50
[11] = BaF3 cells, EGFR DEL19-C797S, read-out: DEL19-C797S/BaF3 GI50
[12] = BaF3 cells, EGFR DEL19-T790-C797S, read-out: DEL19-T790-C797S/BaF3 GI50
[13] = BaF3 cells, EGFR L858R, read-out: L858R/BaF3 GI50
[14] = BaF3 cells, EGFR L858R-C797S, read-out: L858R-C797S/BaF3 GI50
[15] = BaF3 cells, EGFR L858R-T790-C797S, read-out: L858R-T790-C797S/BaF3 GI50
[16] = BaF3 cells, EGFR L858R-T790M, read-out: L858R-T790M/BaF3 GI50
[17] = EGFR DEL19-T790M, read-out: DEL19-T790M GI50

T1 sequence (P00533 25-1210 L858R): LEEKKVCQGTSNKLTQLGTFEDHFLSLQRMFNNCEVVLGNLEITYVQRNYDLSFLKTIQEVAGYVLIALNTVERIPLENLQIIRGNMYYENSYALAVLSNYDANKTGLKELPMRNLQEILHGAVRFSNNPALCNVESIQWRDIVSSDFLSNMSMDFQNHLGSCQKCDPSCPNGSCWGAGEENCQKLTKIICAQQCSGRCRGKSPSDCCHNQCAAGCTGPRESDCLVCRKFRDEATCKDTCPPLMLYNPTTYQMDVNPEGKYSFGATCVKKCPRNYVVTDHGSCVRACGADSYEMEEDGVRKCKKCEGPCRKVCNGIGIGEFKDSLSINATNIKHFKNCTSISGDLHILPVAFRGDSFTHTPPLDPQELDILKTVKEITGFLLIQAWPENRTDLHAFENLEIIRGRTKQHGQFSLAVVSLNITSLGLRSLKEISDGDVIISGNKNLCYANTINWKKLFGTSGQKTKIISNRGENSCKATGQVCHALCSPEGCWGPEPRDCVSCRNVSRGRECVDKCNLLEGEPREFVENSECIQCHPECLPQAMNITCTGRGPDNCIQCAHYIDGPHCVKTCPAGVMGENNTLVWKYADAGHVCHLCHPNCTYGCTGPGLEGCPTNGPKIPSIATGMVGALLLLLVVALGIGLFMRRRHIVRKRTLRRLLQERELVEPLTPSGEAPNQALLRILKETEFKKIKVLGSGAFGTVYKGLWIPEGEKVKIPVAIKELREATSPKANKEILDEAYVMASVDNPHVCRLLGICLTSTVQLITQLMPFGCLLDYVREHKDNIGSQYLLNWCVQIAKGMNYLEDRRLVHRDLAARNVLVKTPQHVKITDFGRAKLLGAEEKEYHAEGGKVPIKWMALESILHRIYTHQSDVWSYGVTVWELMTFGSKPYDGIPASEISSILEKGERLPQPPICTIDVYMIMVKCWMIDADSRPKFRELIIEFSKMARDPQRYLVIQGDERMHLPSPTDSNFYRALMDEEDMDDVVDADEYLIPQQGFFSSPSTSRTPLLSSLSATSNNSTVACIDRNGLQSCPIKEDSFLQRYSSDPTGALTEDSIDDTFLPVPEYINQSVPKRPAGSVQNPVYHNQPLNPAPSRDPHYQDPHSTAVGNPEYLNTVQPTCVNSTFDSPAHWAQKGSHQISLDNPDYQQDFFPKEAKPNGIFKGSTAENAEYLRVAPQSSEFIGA

IC50 (EGFR L858R)	GI50 (A-431; [3])	IC50 (EGFR L858R/T790M)	IC50 (EGFR Exon19Del/T790M)	IC50 [1]	IC50 (EGFR (d746-750 C797S))	GI50 (PC-9; Homo sapiens, PC-9, 72 h)	pIC50 (EGFR Exon19Del)	GI50 [2, 4]	GI50 [2, 5]	GI50 [2, 6]	GI50 [2, 7]	GI50 [2, 8]	GI50 [2, 9]	GI50 [2, 10]	IC50 (EGFR[T790M/C797S/L858R])	IC50 (EGFR wild type)	IC50 (EGFR (C797S L858R))	GI50 (A-431; A-431 cells)	GI50 (PC-9)	other results	SMILES
86 nM	2290 nM	6.3 nM	6.2 nM	6.5 nM	6.5 nM	87 nM	8.04	9.3 nM	11 nM	30 nM	22 nM	9.6 nM	51 nM	20 nM	5.8 nM	1200 nM	25 nM				C[C@@H]1CCCOc2c(cnn2C2CC2)-c2cc(cn(C)c2=O)C(=O)Nc2nc3ccc(N4CCN(C)CC4)cc3n2C1 [Example A22, (11R)-5-Cyclopropyl-11,26-dimethyl-16-(4-methylpiperazin-1-yl)-7-oxa-4,5,13,20,22,26-hexaazapentacyclo[22.3.1.0^{2,6}.0^{13,21}.0^{14,19}]octacosa-1(28),2(6),3,14,16,18,20,24-octaene-23,27-dione]
577 nM		> 5000 nM	> 5000 nM	3170 nM	268 nM		6.53								> 5000 nM	> 5000 nM	942 nM	1380 nM	320 nM	GI50 [2, 11]: 84 nM; GI50 [2, 12]: 204 nM; GI50 [2, 13]: 202 nM; GI50 [2, 14]: 123 nM; GI50 [2, 15]: 223 nM; GI50 [2, 16]: 369 nM; GI50 [2, 17]: 227 nM	CC(C)N1CCN(c2ccc3nc4n(c3c2)C23CCC(CN(CCOc5c(cnn5C)-c5cc(cn(C)c5=O)C(=O)N4)C2)C3)CC1 (single isomer, unassigned) [Example A108A]
39 nM		7 nM	4.9 nM	4.4 nM	3.5 nM		8.38								6.9 nM	206 nM	27 nM	1640 nM	23 nM	GI50 [2, 11]: 0.78 nM; GI50 [2, 12]: 12 nM; GI50 [2, 13]: 13 nM; GI50 [2, 14]: 7.6 nM; GI50 [2, 15]: 34 nM; GI50 [2, 16]: 39 nM; GI50 [2, 17]: 12 nM	CN1CCCC12CN(c1ccc3nc4n(c3c1)C13CCC(CN(CCOc5c(cnn5C)-c5cc(cn(C)c5=O)C(=O)N4)C1)C3)C2 (single isomer, unassigned) [Example A76B]
13 nM	1290 nM	12 nM	9.3 nM	8.9 nM	6.7 nM	236 nM	7.92	16 nM	124 nM	9.7 nM	11 nM	22 nM	30 nM	128 nM	8.5 nM	104 nM	10 nM				CN1CCN(c2ccc3nc4n(c3c2)CCN(CC(F)(F)F)CCOc2c(cnn2C)-c2cc(cn(C)c2=O)C(=O)N4)CC1 [Example A3, 5,26-Dimethyl-16-(4-methylpiperazin-1-yl)-10-(2,2,2-trifluoroethyl)-7-oxa-4,5,10,13,20,22,26-heptaazapentacyclo[22.3.1.0^{2,6}.0^{13,21}.0^{14,19}]octacosa-1(28),2(6),3,14,16,18,20,24-octaene-23,27-dione]
2860 nM		> 5000 nM	> 5000 nM	4860 nM	503 nM		6.35								> 5000 nM	> 5000 nM	4300 nM	7930 nM	810 nM	GI50 [2, 11]: 272 nM; GI50 [2, 12]: 564 nM; GI50 [2, 13]: 536 nM; GI50 [2, 14]: 304 nM; GI50 [2, 15]: 980 nM; GI50 [2, 16]: 942 nM; GI50 [2, 17]: 584 nM	CN1CCCC12CN(c1ccc3nc4n(c3c1)C13CCC(CN(CCOc5c(cnn5C)-c5cc(cn(C)c5=O)C(=O)N4)C1)C3)C2 (single isomer, unassigned) [Example A76A]
> 5000 nM	8300 nM	4530 nM	112 nM	65 nM	175 nM	194 nM	6.72	64 nM	534 nM	790 nM	474 nM	716 nM	356 nM	612 nM	> 5000 nM	> 5000 nM	2650 nM				C[C@@H]1CCCNc2c(cnn2C)-c2cc(cn(C)c2=O)C(=O)Nc2nc3ccc(N4CCN(C)CC4)cc3n2C1 [Example A57]
144 nM		7.6 nM	6.2 nM	6.3 nM	3.8 nM		8.02								7.3 nM	2040 nM	63 nM	2370 nM	4.9 nM	GI50 [2, 11]: 0.66 nM; GI50 [2, 12]: 5.3 nM; GI50 [2, 13]: 10 nM; GI50 [2, 14]: 9.2 nM; GI50 [2, 15]: 9.2 nM; GI50 [2, 16]: 4.4 nM; GI50 [2, 17]: 6.1 nM	Cn1ncc2c1OCCN1CC3CCC(C3)(C1)n1c(nc3ccc(N4CCOCC4)cc31)NC(=O)c1cc-2c(=O)n(C)c1 (stereo not drawn) [Example A62]
14 nM	221 nM	8.5 nM	4.1 nM	3.9 nM	2.2 nM	5.4 nM	8.59	1.2 nM	6.8 nM	3.1 nM	2.4 nM	2 nM	12 nM	8.1 nM	5.7 nM	104 nM	8.5 nM				C[C@@H]1CCCOc2c(cnn2C)-c2cc(cn(C)c2=O)C(=O)Nc2nc3ccc(N4CC(N5CCN(C)CC5)C4)cc3n2C1 [Example A46]
